In PubChem BioAssay AID2060486 (Molecular Pharmacology Branch, DTP, NCI, 2025):
pIC50: −log10 of the molar value.

Test system: IGROV1 complex spheroids (HUVEC, MSC), viability % test/control
Experiment: Anticancer human tumor IGROV1 cell line growth inhibition [GQUAD];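 also: spheroids exposed to compounds for 7 days before readout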;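 as to viability, T/C: 100% = DMSO vehicle control viability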
Conditions: for pIC50: curve of first compound; for viability, T/C: stronger effect = lower value
In short: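 Multi-cell-type spheroids of tumor cells with HUVEC and mesenchymal stem cells, treated with drug combinations. Concentrations descend in half-log steps from near clinical Cmax, or from 10 microM where Cmax is unknown; viability read-out.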

[1] = second compound 0.0316 µM, first compound 0.0316 µM
[2] = second compound 0.0316 µM, first compound 0.316 µM
[3] = second compound 0.1 µM, first compound 0.0316 µM
[4] = second compound 0.1 µM, first compound 0.316 µM
[5] = second compound 0.316 µM, first compound 0.0316 µM
[6] = second compound 0.316 µM, first compound 0.316 µM
[7] = second compound 1 µM, first compound 0.0316 µM
[8] = second compound 1 µM, first compound 0.316 µM
[9] = second compound 3.16 µM, first compound 0.0316 µM
[10] = second compound 3.16 µM, first compound 0.316 µM
[11] = second compound 10 µM, first compound 0.0316 µM
[12] = second compound 10 µM, first compound 0.316 µM

Question: `C=CC(=O)N1CCN(c2nc(=O)n(-c3c(C)ccnc3C(C)C)c3nc(-c4c(O)cccc4F)c(F)cc23)C(C)C1` (centres undefined) + Cc1cnc(CNC(=O)c2c(=O)c3ccc(N4CCCN(C)CC4)nc3n3c2sc2ccccc23)cn1 was tested. Which pIC50 (second compound 0.0316 µM) did it give?
Answer: < 5.00

Question: What about the pIC50 (second compound 0.1 µM) of the same compound?
Answer: 7.11

Question: What about the pIC50 (second compound 0.316 µM) of the same compound?
Answer: > 7.50

Question: And the pIC50 (second compound 1 µM)?
Answer: > 7.50

Question: What about the pIC50 (second compound 3.16 µM) of the same compound?
Answer: > 7.50

Question: What about the pIC50 (second compound 10 µM) of the same compound?
Answer: > 7.50

Question: And the viability, T/C [1]?
Answer: 82.8%

Question: And the viability, T/C (second compound 0.0316 µM, first compound 0.1 µM)?
Answer: 77.2%

Question: And the viability, T/C [2]?
Answer: 88.5%

Question: What about the viability, T/C (second compound 0.0316 µM, first compound 1 µM) of the same compound?
Answer: 60.1%

Question: And the viability, T/C (second compound 0.0316 µM, first compound 3.16 µM)?
Answer: 94.6%

Question: What about the viability, T/C (second compound 0.0316 µM, first compound 10 µM) of the same compound?
Answer: 66.9%

Question: What about the viability, T/C [3] of the same compound?
Answer: 51.8%

Question: And the viability, T/C (second compound 0.1 µM, first compound 0.1 µM)?
Answer: 49.3%

Question: And the viability, T/C [4]?
Answer: 51.4%

Question: And the viability, T/C (second compound 0.1 µM, first compound 1 µM)?
Answer: 43.8%

Question: What about the viability, T/C (second compound 0.1 µM, first compound 3.16 µM) of the same compound?
Answer: 46.6%

Question: And the viability, T/C (second compound 0.1 µM, first compound 10 µM)?
Answer: 51.4%

Question: And the viability, T/C [5]?
Answer: 27%

Question: What about the viability, T/C (second compound 0.316 µM, first compound 0.1 µM) of the same compound?
Answer: 44.7%

Question: What about the viability, T/C [6] of the same compound?
Answer: 39.8%

Question: And the viability, T/C (second compound 0.316 µM, first compound 1 µM)?
Answer: 33.4%

Question: What about the viability, T/C (second compound 0.316 µM, first compound 3.16 µM) of the same compound?
Answer: 44.9%

Question: What about the viability, T/C (second compound 0.316 µM, first compound 10 µM) of the same compound?
Answer: 28.6%

Question: What about the viability, T/C [7] of the same compound?
Answer: 18.5%

Question: What about the viability, T/C (second compound 1 µM, first compound 0.1 µM) of the same compound?
Answer: 20.1%

Question: What about the viability, T/C [8] of the same compound?
Answer: 17%

Question: And the viability, T/C (second compound 1 µM, first compound 1 µM)?
Answer: 17.7%

Question: And the viability, T/C (second compound 1 µM, first compound 3.16 µM)?
Answer: 26.8%

Question: What about the viability, T/C (second compound 1 µM, first compound 10 µM) of the same compound?
Answer: 19.7%

Question: And the viability, T/C [9]?
Answer: 10.2%

Question: What about the viability, T/C (second compound 3.16 µM, first compound 0.1 µM) of the same compound?
Answer: 11.6%

Question: And the viability, T/C [10]?
Answer: 11.6%

Question: And the viability, T/C (second compound 3.16 µM, first compound 1 µM)?
Answer: 12.5%

Question: What about the viability, T/C (second compound 3.16 µM, first compound 3.16 µM) of the same compound?
Answer: 15.6%

Question: And the viability, T/C (second compound 3.16 µM, first compound 10 µM)?
Answer: 12.9%

Question: And the viability, T/C [11]?
Answer: 12.3%

Question: What about the viability, T/C (second compound 10 µM, first compound 0.1 µM) of the same compound?
Answer: 16.2%

Question: What about the viability, T/C [12] of the same compound?
Answer: 16.6%

Question: And the viability, T/C (second compound 10 µM, first compound 1 µM)?
Answer: 15.6%

Question: And the viability, T/C (second compound 10 µM, first compound 3.16 µM)?
Answer: 14.6%

Question: What about the viability, T/C (second compound 10 µM, first compound 10 µM) of the same compound?
Answer: 10%

Question: With `CCc1c2c(nc3ccc(O)cc13)-c1cc3c(c(=O)n1C2)COC(=O)[C@]3(O)CC` + Cc1cnc(CNC(=O)c2c(=O)c3ccc(N4CCCN(C)CC4)nc3n3c2sc2ccccc23)cn1 as the compound, how does the pIC50 (second compound 0.0316 µM) read?
Answer: > 9.00

Question: What about the pIC50 (second compound 0.1 µM) of the same compound?
Answer: > 9.00

Question: And the pIC50 (second compound 0.316 µM)?
Answer: > 9.00

Question: What about the pIC50 (second compound 1 µM) of the same compound?
Answer: > 9.00

Question: What about the pIC50 (second compound 3.16 µM) of the same compound?
Answer: > 9.00

Question: What about the pIC50 (second compound 10 µM) of the same compound?
Answer: > 9.00

Question: What about the viability, T/C (second compound 0.0316 µM, first compound 0.000999 µM) of the same compound?
Answer: 31.5%

Question: And the viability, T/C (second compound 0.0316 µM, first compound 0.00316 µM)?
Answer: 13.3%

Question: And the viability, T/C (second compound 0.0316 µM, first compound 0.00999 µM)?
Answer: 9.95%

Question: What about the viability, T/C [1] of the same compound?
Answer: 8.54%

Question: What about the viability, T/C (second compound 0.0316 µM, first compound 0.0999 µM) of the same compound?
Answer: 4.31%

Question: And the viability, T/C [2]?
Answer: 1.99%

Question: What about the viability, T/C (second compound 0.1 µM, first compound 0.000999 µM) of the same compound?
Answer: 17.2%

Question: And the viability, T/C (second compound 0.1 µM, first compound 0.00316 µM)?
Answer: 8.8%

Question: What about the viability, T/C (second compound 0.1 µM, first compound 0.00999 µM) of the same compound?
Answer: 9.75%

Question: And the viability, T/C [3]?
Answer: 7.73%

Question: And the viability, T/C (second compound 0.1 µM, first compound 0.0999 µM)?
Answer: 4.92%

Question: What about the viability, T/C [4] of the same compound?
Answer: 2.18%

Question: And the viability, T/C (second compound 0.316 µM, first compound 0.000999 µM)?
Answer: 14.4%

Question: And the viability, T/C (second compound 0.316 µM, first compound 0.00316 µM)?
Answer: 10.9%

Question: And the viability, T/C (second compound 0.316 µM, first compound 0.00999 µM)?
Answer: 8.79%

Question: What about the viability, T/C [5] of the same compound?
Answer: 6.94%

Question: What about the viability, T/C (second compound 0.316 µM, first compound 0.0999 µM) of the same compound?
Answer: 6.74%

Question: What about the viability, T/C [6] of the same compound?
Answer: 2.05%

Question: What about the viability, T/C (second compound 1 µM, first compound 0.000999 µM) of the same compound?
Answer: 10.6%

Question: And the viability, T/C (second compound 1 µM, first compound 0.00316 µM)?
Answer: 10.6%

Question: What about the viability, T/C (second compound 1 µM, first compound 0.00999 µM) of the same compound?
Answer: 9.03%

Question: What about the viability, T/C [7] of the same compound?
Answer: 9.75%

Question: What about the viability, T/C (second compound 1 µM, first compound 0.0999 µM) of the same compound?
Answer: 5.59%

Question: What about the viability, T/C [8] of the same compound?
Answer: 1.55%

Question: What about the viability, T/C (second compound 3.16 µM, first compound 0.000999 µM) of the same compound?
Answer: 11.3%

Question: What about the viability, T/C (second compound 3.16 µM, first compound 0.00316 µM) of the same compound?
Answer: 7%

Question: What about the viability, T/C (second compound 3.16 µM, first compound 0.00999 µM) of the same compound?
Answer: 6.92%

Question: And the viability, T/C [9]?
Answer: 5.6%

Question: What about the viability, T/C (second compound 3.16 µM, first compound 0.0999 µM) of the same compound?
Answer: 3.86%

Question: And the viability, T/C [10]?
Answer: 0.83%

Question: What about the viability, T/C (second compound 10 µM, first compound 0.000999 µM) of the same compound?
Answer: 7.27%

Question: What about the viability, T/C (second compound 10 µM, first compound 0.00316 µM) of the same compound?
Answer: 8.08%

Question: And the viability, T/C (second compound 10 µM, first compound 0.00999 µM)?
Answer: 7.06%

Question: What about the viability, T/C [11] of the same compound?
Answer: 6.04%

Question: And the viability, T/C (second compound 10 µM, first compound 0.0999 µM)?
Answer: 3.78%

Question: What about the viability, T/C [12] of the same compound?
Answer: 0.4%
